Results from patent publication US5789383A, “Bradykinin antagonists for the prophylaxis or treatment of virus diseases” (Hoechst Aktiengesellschaft, priority 1993, dated 1998).

Test system: HSV-1
Experiment: HOE 140 in combination with acyclovir on HSV-1 skin lesions in hairless mice, Experiment 24/94
Format: in vivo
Conditions: acyclovir 0.05% orally day 3-7, no HOE 140
Experimental: Investigation of the Action of HOE 140 on Skin Lesions Caused by HSV-1 in Hairless Mice in Combination with Acyclovir
HOE 140 was administered twice daily either topically as a 2% strength cream in a neutral base or subcutaneously with 2 mg/kg per dosage. Acyclovir was administered as a 0.05% strength solution in the drinking water.
Administration of acyclovir day 3-7
Administration of HOE 140 day 3-7 or 0-7

Q: Which results are given for `Nc1nc2c(ncn2COCCO)c(=O)[nH]1` [Acyclovir, acyclovir]?
A: Average survival time: 7.3 ± 1.2 days; Survivors/group size (chi^2 test not significant): 2/8; Animals with zoster formation (group size 8): 7
